Test results from patent US20220298145A1, “BRAF INHIBITORS AS PARADOX BREAKERS” (Hoffmann-La Roche Inc., priority 2019, published 2022).
pEC50, pIC50, pKd: −log10 of the molar value. Like-named read-outs stand apart in the source and are kept apart here.

Key:
[1] = biological target: BRAF (V600E) (Homo sapiens, UniProt P15056, V600E); test: Kd for RAF kinases: BRAF (V600E); assay type: binding
[2] = biological target: BRAF (Homo sapiens, UniProt P15056); test: Kd for RAF kinases: BRAF; assay type: binding
[3] = biological target: CRAF (Homo sapiens, UniProt P04049); test: Kd for RAF kinases: CRAF; assay type: binding
[4] = system: ERK 1,2 phosphorylation in A375 cells expressing V600E mutated BRAF; test: HTRF assay for P-ERK determination in A375 cells (BRAF inhibition); assay type: cell-based; conditions: Homo sapiens, A-375, 1 h, read-out: pERK IC50 A375
From the text: (§1) DMEM no-phenol red medium supplemented with L-glutamine was purchased from (Thermo Fisher Scientific). Fetal bovine serum (FBS) was purchased from VWR. Advanced ERK phospho-T202/Y204 kit-10,000 tests was purchased from Cisbio cat #64AERPEH. A375 and HCT116 cells were originally obtained from ATCC and banked by the Roche repository.
A375 is a cellular cancer model expressing V600E mutated BRAF and HCT116 a cellular cancer model expressing WT BRAF. […] ERK 1,2 phosphorylation (terminal member of the phosphorylation cascade of the MAPK pathway) is hereafter reported as main readout for the activation status of the MAPK pathway. Prior to the assay, A375 and HCT116 cell lines are maintained in DMEM no-phenol red medium supplemented with 10% fetal bovine serum (FBS). […] Briefly, 8000 cells/well in 12 μl media/well are plated in the 384-well plate and left overnight in the incubator (at 37° C. with 5% CO2-humidified atmosphere), the following day the plate is treated in duplicate with test compounds, dabrafenib and PLX8394 (the latter two as controls) at the following final drug concentrations: 10 μM-3 μM-1 μM-0.3 μM-0.1 μM-0.03 μM-0.01 μM-0.003 μM-0.001 μM, all wells are subjected to DMSO normalization and drug incubation occurs for 1 hour. Then, 4 μl of a 4× lysis buffer supplied with the kit are added to the wells, the plate is then centrifuged for 30 second (300 rcf) and incubated on a plate shaker for 1 h at RT.
(§2) At the end of the incubation 4 μL/well of advanced P-ERK antibody solution (prepared according to manufacturer's instruction) followed by 4 μL/well of criptate P-ERK antibody solution (prepared according to manufacturer's instruction) (Cisbio cat #64AERPEH) are added to test wells.
(§3) In order to allow proper data normalization control wells non drug treated reported in the following table are always included in each plate (according to manufacturer's instruction):
(§4) The plate is then centrifuged at 300 rcf for 30 second, sealed to prevent evaporation and incubated overnight in the dark at room temperature.
(§5) The obtained fluorescence values are processed according to the formula Ratio=Signal (620 nm)/Signal (625 nm)*10000 then the average of the ratio on the blank is subtracted to all values.
Data are normalized in the case of A375 cells (BRAF inhibition) considering the average of the ratio (blank subtracted) derived by DMSO only treated cells as 100% and by considering the average of the ratio (blank subtracted) derived by 10 uM dabrafenib treated cells as 0%. Mean of the normalized points are fitted with sigmoidal curve and IC50 determined.

[5] = system: ERK 1,2 phosphorylation in HCT116 cells expressing WT BRAF; test: HTRF assay for P-ERK determination in HCT116 cells (paradoxical BRAF activation); assay type: cell-based; conditions: for Emax: Homo sapiens, HCT-116, read-out: Percentage of maximum paradox inducing effect from dabrafenib; for pEC50: read-out: P-ERK EC50 conc. at which the compound induces p-ERK activation of 50% of that induced by dabrafenib (Positive control paradox inducer) HCT-116, HCT-116 cells, 1 hour drug incubation, not applicable = activation does not reach 50% of dabrafenib maximum
From the text: as §1, with “repository. 384-well microplates were purchased from Greiner Bio-One, 384-well, (With Lid, HiBase, Low volume cat 784-080).” for “repository.”
A375 is a cellular cancer model expressing V600E mutated BRAF and HCT116 a cellular cancer model expressing WT BRAF. First generation BRAF inhibitors such as e.g. dabrafenib induce a paradox effect on tumour cells in that they inhibit the growth of V600E mutated BRAF cells (such as e.g. A375), while they activate growth in WT BRAF cells (such as e.g. HCT 116). ERK 1,2 phosphorylation (terminal member of the phosphorylation cascade of the MAPK pathway) is hereafter reported as main readout for the activation status of the MAPK pathway. Prior to the assay, A375 and HCT116 cell lines are maintained in DMEM no-phenol red medium supplemented with 10% fetal bovine serum (FBS). Following compound treatment, P-ERK levels are determined by measuring FRET fluorescence signal induced by selective binding of 2 antibodies provided in the mentioned kit (Cisbio cat #64AERPEH) on ERK protein when phosphorylated at Thr202/Tyr204. Briefly, 8000 cells/well in 12 μl media/well are plated in the 384-well plate and left overnight in the incubator (at 37° C. with 5% CO2-humidified atmosphere), the following day the plate is treated in duplicate with test compounds, dabrafenib and PLX8394 (the latter two as controls) at the following final drug concentrations: 10 μM-3 μM-1 μM-0.3 μM-0.1 μM-0.03 μM-0.01 μM-0.003 μM-0.001 μM, all wells are subjected to DMSO normalization and drug incubation occurs for 1 hour. Then, 4 μl of a 4× lysis buffer supplied with the kit are added to the wells, the plate is then centrifuged for 30 second (300 rcf) and incubated on a plate shaker for 1 h at RT.
as §2, §3, §4
The plate is then analyzed and fluorescence emission value collected through a Pherastast FSX (BMG Labtech) apparatus at […].
as §5
Data are normalized in the case of HCT116 cells (BRAF activation) considering the average of the ratio (blank subtracted) derived by DMSO only treated cells as 0% and by considering the average of the ratio (blank subtracted) derived by dabrafenib treated cells at the concentration which provides the highest signal as 100%. Individual points are fitted with either sigmoidal or bell shape curves, and the percentage of activation compared to maximum dabrafenib-mediated activation is determined. The EC50 is the concentration at which activation equal to 50% of the maximum achieved by dabrafenib is obtained.
The Percentage of Maximum paradox inducing effect from dabrafenib is determined by evaluating the percentage at which the test compound induce its maximum P-ERK signal as percentage of the highest signal produced by dabrafenib within the dose range tested.

Chain of BRAF (V600E) (P15056 whole entry V600E): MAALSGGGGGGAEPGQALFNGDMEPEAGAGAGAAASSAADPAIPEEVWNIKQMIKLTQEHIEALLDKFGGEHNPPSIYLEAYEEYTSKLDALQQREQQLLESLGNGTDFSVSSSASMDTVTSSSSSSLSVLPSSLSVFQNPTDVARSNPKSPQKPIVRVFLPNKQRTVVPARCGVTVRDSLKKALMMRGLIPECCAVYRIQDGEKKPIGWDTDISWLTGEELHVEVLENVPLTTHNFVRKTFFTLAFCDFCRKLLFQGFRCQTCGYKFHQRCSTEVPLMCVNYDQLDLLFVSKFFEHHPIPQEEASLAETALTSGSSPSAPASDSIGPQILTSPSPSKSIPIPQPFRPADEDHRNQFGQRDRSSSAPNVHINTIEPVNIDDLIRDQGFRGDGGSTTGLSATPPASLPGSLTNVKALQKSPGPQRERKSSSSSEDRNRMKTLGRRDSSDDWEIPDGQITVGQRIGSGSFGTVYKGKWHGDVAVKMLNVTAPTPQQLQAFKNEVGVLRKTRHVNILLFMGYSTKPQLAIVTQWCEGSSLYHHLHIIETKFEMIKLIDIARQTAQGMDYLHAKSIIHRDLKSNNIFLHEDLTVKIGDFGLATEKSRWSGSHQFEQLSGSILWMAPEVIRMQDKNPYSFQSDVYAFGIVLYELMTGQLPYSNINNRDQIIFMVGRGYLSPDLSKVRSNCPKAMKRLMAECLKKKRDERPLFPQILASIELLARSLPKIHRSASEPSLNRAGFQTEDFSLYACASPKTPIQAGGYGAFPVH
Chain of BRAF (P15056 whole entry): as the sequence (P15056 whole entry V600E) above, with E600V counted along it
Chain of CRAF (P04049 whole entry): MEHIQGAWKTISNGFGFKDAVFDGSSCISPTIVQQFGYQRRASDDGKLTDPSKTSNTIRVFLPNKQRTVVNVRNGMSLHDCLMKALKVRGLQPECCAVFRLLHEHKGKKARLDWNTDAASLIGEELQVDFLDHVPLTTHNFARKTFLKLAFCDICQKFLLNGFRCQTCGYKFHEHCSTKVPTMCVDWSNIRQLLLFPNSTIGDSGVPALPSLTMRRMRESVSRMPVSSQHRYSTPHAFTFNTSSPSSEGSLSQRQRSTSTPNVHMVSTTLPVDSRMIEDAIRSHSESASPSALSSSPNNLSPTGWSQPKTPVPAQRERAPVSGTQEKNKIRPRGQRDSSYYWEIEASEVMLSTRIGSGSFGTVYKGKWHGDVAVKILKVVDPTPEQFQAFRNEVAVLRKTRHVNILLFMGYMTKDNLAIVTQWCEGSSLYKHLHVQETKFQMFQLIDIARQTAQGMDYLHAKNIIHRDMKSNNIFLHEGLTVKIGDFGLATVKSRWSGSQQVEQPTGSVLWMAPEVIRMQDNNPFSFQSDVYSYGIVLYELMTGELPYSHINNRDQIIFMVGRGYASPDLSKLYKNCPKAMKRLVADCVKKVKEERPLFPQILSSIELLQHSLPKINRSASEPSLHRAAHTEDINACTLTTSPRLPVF

| pKd ([1]; read-out: Kd BRAF (V600E)) | pKd ([2]; read-out: Kd BRAF) | pKd [3] | pIC50 [4] | pEC50 [5] | pKd [1] | pKd [2] | Compound | Emax [5] |
| --- | --- | --- | --- | --- | --- | --- | --- | --- |
|  |  | 8.52 | 8.59 | 6.01 | 8.37 | 8.77 | CN(C)S(=O)(=O)Nc1ccc(F)c(Oc2ccc3ncn(C)c(=O)c3c2)c1C#N [Example 17, 6-[2-cyano-3-(dimethylsulfamoylamino)-6-fluoro-phenoxy]-3-methyl-4-oxo-quinazoline] | 71% |
| 9.05 | 9.40 | 9.10 | 8.80 | 6.76 |  |  | Cn1cnc2ccc(Oc3c(F)ccc(NS(=O)(=O)N4CCCC4)c3C#N)cc2c1=O [Example 15, N-[2-cyano-4-fluoro-3-(3-methyl-4-oxo-quinazolin-6-yl)oxy-phenyl]pyrrolidine-1-sulfonamide] | 63% |
|  |  | 9.15 | 8.64 | 6.82 | 8.72 | 9.00 | Cn1cnc2ccc(Oc3c(F)ccc(NS(=O)(=O)C4CCCC4)c3C#N)cc2c1=O [Example 16, N-[2-cyano-4-fluoro-3-(3-methyl-4-oxo-quinazolin-6-yl)oxy-phenyl]cyclopentanesulfonamide] | 70% |
|  |  | 8.96 | 7.77 | 6.19 | 8.59 | 8.80 | Cn1cnc2ccc(Oc3cccc(NS(=O)(=O)N4CCCC4)c3C#N)cc2c1=O [Example 6, N-[2-cyano-3-(3-methyl-4-oxo-quinazolin-6-yl)oxy-phenyl]pyrrolidine-1-sulfonamide] | 59% |

Second part, the molecule before the results:

| Compound | pKd ([1]; read-out: Kd BRAF (V600E)) | pKd ([2]; read-out: Kd BRAF) | pKd [3] | pIC50 [4] | pEC50 [5] | pKd [1] | pKd [2] | Emax [5] |
| --- | --- | --- | --- | --- | --- | --- | --- | --- |
| CCN(C)S(=O)(=O)Nc1cccc(Nc2ccc3ncn(C)c(=O)c3c2)c1C#N [Example 11, 6-[2-cyano-3-[[ethyl(methyl)sulfamoyl]amino]anilino]-3-methyl-4-oxo-quinazoline] | 7.58 | 7.94 | 7.28 | 7.71 | < 6.00 |  |  | 61% |
| Cn1cnc2ccc(Nc3cccc(NS(=O)(=O)N4CC[C@@H](F)C4)c3C#N)cc2c1=O [Example 12, (3R)—N-[2-cyano-3-[(3-methyl-4-oxo-quinazolin-6-yl)amino]phenyl]-3-fluoro-pyrrolidine-1-sulfonamide] |  |  | 8.01 | 8.04 |  | 8.12 | 8.70 | 49% |
| CCN(C)S(=O)(=O)Nc1ccc(Cl)c(Oc2ccc3ncn(C)c(=O)c3c2)c1C#N [Example 2, 6-[6-chloro-2-cyano-3-[[ethyl(methyl)sulfamoyl]amino]phenoxy]-3-methyl-4-oxo-quinazoline] |  |  | 8.27 | 7.54 | < 6.00 | 7.43 | 7.52 | 69% |
| CCN(C)S(=O)(=O)Nc1cccc(Oc2ccc3ncn(C)c(=O)c3c2)c1C#N [Example 5, 6-[2-cyano-3-[[ethyl(methyl)sulfamoyl]amino]phenoxy]-3-methyl-4-oxo-quinazoline] |  |  | 8.14 | 7.28 | < 6.00 | 7.49 | 7.97 | 61% |
| Cn1cnc2ccc(Nc3c(Cl)ccc(NS(=O)(=O)N4CCCC4)c3C#N)cc2c1=O [Example 14, N-[4-chloro-2-cyano-3-[(3-methyl-4-oxo-quinazolin-6-yl)amino]phenyl]pyrrolidine-1-sulfonamide] | 9.15 | 8.85 | 8.82 | 7.86 | 6.69 |  |  | 74% |
| CCN(C)S(=O)(=O)Nc1ccc(Cl)c(Nc2ccc3ncn(C)c(=O)c3c2)c1C#N [Example 13, 6-[6-chloro-2-cyano-3-[[ethyl(methyl)sulfamoyl]amino]anilino]-3-methyl-4-oxo-quinazoline] |  |  | 8.17 | 7.83 | < 6.00 | 8.00 | 8.37 | 67% |
| Cn1cnc2ccc(Oc3cccc(NS(=O)(=O)C4CCCC4)c3C#N)cc2c1=O [Example 8, N-[2-cyano-3-(3-methyl-4-oxo-quinazolin-6-yl)oxy-phenyl]cyclopentanesulfonamide] |  |  | 8.74 | 8.28 | 6.39 | 8.15 | 8.48 | 63% |
